Results taken from PMC9696335, “Natural Inhibitors Targeting the Localization of Lipoprotein System in Vibrio parahaemolyticus” (International Journal of Molecular Sciences, 2022).

How the values were obtained:
LolB [1] = biological target: T1, LolB (Vibrio parahaemolyticus, UniProt Q87RN6); assay: intrinsic fluorescence quenching of purified LolB, one-site binding fit
T1 construct: Residues 26-212, N-terminal His6 tag

LolB [2] = biological target: T1, LolB; assay: intrinsic fluorescence quenching of purified LolB (Stern-Volmer Ksv; Kd only said to be micromolar); type: binding

T1 sequence (Q87RN6 17-203): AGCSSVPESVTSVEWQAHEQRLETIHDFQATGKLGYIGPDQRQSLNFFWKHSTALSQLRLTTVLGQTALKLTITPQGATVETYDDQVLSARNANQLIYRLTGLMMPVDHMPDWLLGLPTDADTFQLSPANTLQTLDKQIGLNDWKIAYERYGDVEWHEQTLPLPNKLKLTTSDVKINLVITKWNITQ

Structure (SMILES) | Kd (LolB [1]) | Ksv (10^4 L/mol) (LolB [2])
Oc1cc(O)c2c(c1)O[C@@H](c1ccc(O)c(O)c1)[C@@H](O[C@]1(c3ccc(O)c(O)c3)Oc3cc(O)cc(O)c3[C@@H](O)[C@H]1O)C2 [procyanidin] | 14.7 ± 4.65 µM | 
C[C@@H]1O[C@@H](OC[C@H]2O[C@@H](Oc3c(-c4ccc(O)c(O)c4)oc4cc(O)cc(O)c4c3=O)[C@H](O)[C@@H](O)[C@@H]2O)[C@H](O)[C@H](O)[C@H]1O [rutin] |  | 8.7014 10^4 L/mol
C=C1C[C@@]23CC[C@H]4[C@@](C)(CCC[C@@]4(C)C(=O)O[C@@H]4O[C@H](CO)[C@@H](O)[C@H](O)[C@H]4O)[C@@H]2CC[C@]1(O[C@@H]1O[C@H](CO)[C@@H](O)[C@H](O)[C@H]1O[C@@H]1O[C@H](CO)[C@@H](O)[C@H](O)[C@H]1O)C3 [stevioside] |  | 6.1570 10^4 L/mol
C[C@@H]1O[C@@H](OC[C@H]2O[C@@H](Oc3c(-c4ccc(OCCO)c(OCCO)c4)oc4cc(OCCO)cc(O)c4c3=O)[C@H](O)[C@@H](O)[C@@H]2O)[C@H](O)[C@H](O)[C@H]1O [troxerutin] |  | 14.2317 10^4 L/mol
